Assay results as given in PMC7961380, “A Systematic Study of the In Vitro Pharmacokinetics and Estimated Human In Vivo Clearance of Indole and Indazole-3-Carboxamide Synthetic Cannabinoid Receptor Agonists Detected on the Illicit Drug Market” (Molecules, 2021).
Read-outs that look alike come from different tables or passages of the source.

Legend:
[1] = tested on: pooled human cryopreserved hepatocytes (pHHeps); assay: Metabolic stability, pooled human cryopreserved hepatocyte incubations; conditions: for Predicted In Vivo Hepatic Clearance, CLH: from pHHeps CLint, well-stirred model with plasma fu, Q 21 mL min^−1 kg^−1; for T1/2: pHHeps 0.25 million cells mL^−1, 0.5 µM, 37 °C, n ≥ 3 ± SD; for Intrinsic clearance, CLint: alternative hepatocyte cell density 99x10^6 hepatocytes per gram liver
[2] = Plasma protein binding by equilibrium dialysis; format: in vitro ADME, human; conditions: 37 °C; for fraction unbound at 5 h, 10 µg mL^−1: human, pooled human plasma, pH 7.4, equilibrium dialysis 5 h
Description: Plasma protein binding was assessed by equilibrium dialysis in a 96-well dialysis block (HTDialysis, Ledyard, CT, USA). Dialysis membranes (12–14 kDa) were soaked in deionised water for at least 60 min. Membranes were soaked overnight at 4 °C in ethanol:water 20:80% v/v and then rinsed with deionised water immediately prior to use. […] Spiked plasma (150 µL) was dialysed against isotonic phosphate buffer (pH 7.4) (150 µL) for 5 h at 37 °C with shaking at 100 rpm. Thermal degradation controls for each test compound were kept at 37 °C and 4 °C. Blank control plasma and buffer were included in the incubation. Following incubation, dialysed plasma samples and thermal degradation controls (50 µL) were added to drug-free buffer (50 µL), and dialysed buffer samples (50 µL) were added to drug-free plasma (50 µL). […] Supernatant (150 µL) was added to 50 µL deionised water and samples were analysed by UPLC-MS/MS as described above. Dialysed buffer from each well was tested for protein contamination using BCA protein assay reagent to determine whether membranes had been compromised.
Bu = Analyte/IS ratio determined in buffer side (2) Fraction unbound, fu=(100−% bound)/100

[3] = Short-term plasma stability with and without esterase inhibitors; conditions: 3 h, 37 °C; for Parent Compound Remaining (%), Esterase Inhibitors: pH 7.4, BNPP and PMSF 500 µM each; for Parent Compound Remaining (%), No Esterase Inhibitors: pH 7.4, pooled human plasma
[4] = Metabolic stability, pooled human liver microsome incubations; conditions: for Predicted In Vivo Hepatic Clearance, CLH: from pHLM CLint, well-stirred model with plasma fu, Q 21 mL min^−1 kg^−1; for T1/2: pHLM 0.5 mg mL^−1, 0.5 µM, NADPH, 37 °C; for T1/2 / Microsomal Intrinsic Clearance, CLint micr: n ≥ 3 ± SD
Description: Total incubation volume was 500 µL. Procedure: Test compound working solutions (50 µM in potassium phosphate buffer (pH 7.4)) were prepared (<1% DMSO). pHLM were thawed and diluted in potassium phosphate buffer (pH 7.4). […] Reactions were quenched in 200 µL ACN spiked with donepezil (IS, 50 ng mL^−1). […] Samples were analysed by UPLC-MS/MS in a 96 deep-well 2 mL plate. Each SCRA was incubated at least in triplicate but additional incubations were carried out across a number of analytical batches, giving greater replication and a greater understanding of system variability. Microsomal scaling factors used for human liver microsome incubations in the literature vary. Intrinsic clearance and predicted in vivo clearance rates calculated using alternative scaling factors found in the literature is provided in Section S6 of the supplementary information, to aid comparison of data between publications.
Equations used for in vitro intrinsic clearance calculation and human in vivo clearance […]
The equations used for in vitro intrinsic clearance calculation and human in vivo clearance estimation […]
Microsomal clearance (HLM incubations) in mL min-1 mg microsomal protein-1 [3]
Intrinsic clearance (whole-liver dimensions) (HLM incubations) in mL min-1 kg-1 [3] CL = k x V x [Liver](g) x SF Eqn. 7 […]
mg g microsomal protein-1 [7]
Intrinsic clearance (whole-liver dimensions) (HHep incubations) in mL min-1 kg-1 [4] CL = k x V x hepatocytes/g liver x [Liver](g) Eqn. 8 […]
Where: hepatocytes/g liver = 107x10^6 cells/g liver
Hepatic clearance in mL min-1 kg-1 [3]
[…] Eqn. 9
Where: Q = hepatic blood flow, 21 mL min-1 kg-1 [9]; fu = fraction unbound (plasma); CLint = […]
Estimated human hepatic extraction ratio [5]
Intrinsic clearance data – pooled human liver microsome incubations […]
table S4-28. Intrinsic clearance and predicted in vivo data calculated using alternative microsomal scaling factors found in the literature – 32 [10] and 45 [11] mg microsomal protein per gram liver – are provided in tables S29 and S30, respectively.

[5] = pHHeps, 99x10^6 hepatocytes per gram liver
[6] = 10 µg mL^−1, read-out: PPB (%) (converted)
[7] = pHLM, alternative microsomal scaling factor 32 mg microsomal protein per gram liver
[8] = pHLM, alternative microsomal scaling factor 45 mg microsomal protein per gram liver
[9] = pHLM, scaling factor 32 mg microsomal protein per gram liver
[10] = pHLM, scaling factor 45 mg microsomal protein per gram liver

Row | SMILES | Predicted In Vivo Hepatic Clearance, CLH [1] | Hepatic extraction ratio, EH ([1]; from pHHeps incubations) | T1/2 [1] | Hepatic extraction ratio, EH [1, 5] | Predicted in vivo hepatic clearance, CLH [1, 5] | % parent compound remaining, Average ([1]; pHHeps, 3 min) | % parent compound remaining, Average ([1]; pHHeps, 6 min) | % parent compound remaining, Average ([1]; pHHeps, 9 min) | % parent compound remaining, Average ([1]; pHHeps, 15 min) | % parent compound remaining, Average ([1]; pHHeps, 30 min) | % parent compound remaining, Average ([1]; pHHeps, 45 min) | % parent compound remaining, Average ([1]; pHHeps, 60 min) | Intrinsic clearance, CLint ([1]; pHHeps) | Parent Compound Remaining (%), Esterase Inhibitors [3] | Parent Compound Remaining (%), No Esterase Inhibitors [3] | Predicted In Vivo Hepatic Clearance, CLH [4] | Hepatic extraction ratio, EH ([4]; from pHLM incubations) | T1/2 [4] | % parent compound remaining, Average ([4]; pHLM, 3 min) | % parent compound remaining, Average ([4]; pHLM, 6 min) | also measured
1 | COC(=O)[C@H](NC(=O)c1nn(CCCCF)c2ccccc12)C(C)(C)C [(R)-4F-MDMB-BINACA (4), methyl 2-[1-(4-fluorobutyl)-1H-indazole-3-carboxamido]-3,3-dimethylbutanoate] | 8.77 ± 1.43 mL/min/kg | 0.42 ± 0.068 | 58 ± 17.2 min | 0.40 ± 0.067 | 8.38 ± 1.40 mL/min/kg | 89.2% | 84.6% | 91.0% | 82.6% | 65.7% | 48.5% | 37.9% | 128 ± 34.6 mL/min/kg | 96.0 ± 1.7% | 91.1 ± 6.8% | 8.55 ± 0.24 mL/min/kg | 0.41 ± 0.012 | 14 ± 0.68 min | 78.8% | 72.8% | fraction unbound at 5 h, 10 µg mL^−1 [2, 6]: 0.111; % parent compound remaining, Average ([4]; pHLM, 9 min): 54.1%; % parent compound remaining, Average ([4]; pHLM, 15 min): 48.4%; % parent compound remaining, Average ([4]; pHLM, 30 min): 26.6%; Intrinsic clearance, CLint [4, 7]: 79 mL/min/kg; Intrinsic clearance, CLint [4, 8]: 112 mL/min/kg; Microsomal Intrinsic Clearance, CLint micr ([4]; pHLM): 0.096 ± 0.005 mL min^−1 mg Microsomal Protein^−1; Hepatic extraction ratio, EH [4, 9]: 0.30 ± 0.010; Predicted in vivo hepatic clearance, CLH [4, 9]: 6.20 mL/min/kg; Hepatic extraction ratio, EH [4, 10]: 0.37 ± 0.011; Predicted in vivo hepatic clearance, CLH [4, 10]: 7.78 mL/min/kg
2 | COC(=O)[C@H](NC(=O)c1cn(CCCCCF)c2ccccc12)C(C)(C)C [(R)-5F-MDMB-PICA (3), methyl 2-[1-(5-fluoropentyl)-1H-indole-3-carboxamido]-3,3-dimethylbutanoate] | 6.27 ± 0.74 mL/min/kg | 0.30 ± 0.035 | 54 ± 9.4 min | 0.28 ± 0.034 | 5.94 ± 0.72 mL/min/kg | 87.4% | 85.8% | 88.6% | 78.8% | 64.9% | 51.8% | 43.7% | 134 ± 22.3 mL/min/kg | 97.7 ± 5.6% | 103.2 ± 14.5% | 7.22 ± 0.05 mL/min/kg | 0.34 ± 0.002 | 11 ± 0.11 min | 72.6% | 62.5% | PPB (%) ([2]; equilibrium dialysis 5 h, 10 µg mL^−1): 93.8 ± 0.15%; Fraction Unbound (fu) ([2]; equilibrium dialysis 5 h, plasma): 0.062 ± 0.0015; % parent compound remaining, Average ([4]; pHLM, 9 min): 52.6%; % parent compound remaining, Average ([4]; pHLM, 15 min): 36.8%; % parent compound remaining, Average ([4]; pHLM, 30 min): 16.4%; Intrinsic clearance, CLint [4, 7]: 108 ± 1.13 mL/min/kg; Intrinsic clearance, CLint [4, 8]: 152 ± 1.59 mL/min/kg; Microsomal Intrinsic Clearance, CLint micr ([4]; pHLM): 0.132 ± 0.001 mL min^−1 mg Microsomal Protein^−1; Hepatic extraction ratio, EH [4, 9]: 0.24 ± 0.002; Predicted in vivo hepatic clearance, CLH [4, 9]: 5.09 ± 0.04 mL/min/kg; Hepatic extraction ratio, EH [4, 10]: 0.31 ± 0.002; Predicted in vivo hepatic clearance, CLH [4, 10]: 6.51 ± 0.05 mL/min/kg
3 | COC(=O)[C@H](NC(=O)c1nn(CCCCCF)c2ccccc12)C(C)(C)C [(R)-5F-MDMB-PINACA (2), methyl 2-[1-(5-fluoropentyl)-1H-indazole-3-carboxamido]-3,3-dimethylbutanoate] | 8.16 ± 0.38 mL/min/kg | 0.39 ± 0.018 | 23 ± 1.8 min | 0.37 ± 0.018 | 7.78 ± 0.38 mL/min/kg | 84.1% | 67.3% | 55.7% | 45.8% | 27.3% | 17.9% | 13.6% | 309 ± 23.6 mL/min/kg | 100.1 ± 7.0% | 95.9 ± 6.7% | 6.52 ± 0.61 mL/min/kg | 0.31 ± 0.029 | 8.0 ± 1.1 min | 71.1% | 58.2% | half-life ([1]; pHHep lot HUE50-N): 22.9 ± 1.8 min; half-life ([1]; pHHep lot HUE50-P): 6.5 ± 0.13 min; fraction unbound at 5 h, 10 µg mL^−1 [2, 6]: 0.04; fraction unbound at 5 h, 10 µg mL^−1 ([2]; plasma, read-out: Fraction Unbound (fu)): 0.04 ± 0.0058; % parent compound remaining, Average ([4]; pHLM, 9 min): 44.4%; % parent compound remaining, Average ([4]; pHLM, 15 min): 28.9%; % parent compound remaining, Average ([4]; pHLM, 30 min): 8.7%; Intrinsic clearance, CLint [4, 7]: 145 mL/min/kg; Intrinsic clearance, CLint [4, 8]: 204 mL/min/kg; Microsomal Intrinsic Clearance, CLint micr ([4]; pHLM): 0.176 ± 0.024 mL min^−1 mg Microsomal Protein^−1; Hepatic extraction ratio, EH [4, 9]: 0.22 ± 0.023; Predicted in vivo hepatic clearance, CLH [4, 9]: 4.53 ± 0.48 mL/min/kg; Hepatic extraction ratio, EH [4, 10]: 0.28 ± 0.027; Predicted in vivo hepatic clearance, CLH [4, 10]: 5.85 ± 0.57 mL/min/kg
